These results are taken from US20110166176A1, “COMPOUNDS AND COMPOSITIONS AS MODULATORS OF GPR119 ACTIVITY” (IRM LLC, priority 2008, published 2011).

For the assay, the target named is T1, human GPR119 (Homo sapiens, UniProt Q8TDV5).
T1 construct: expressed in transfected cells
T1 sequence (Q8TDV5 1-335): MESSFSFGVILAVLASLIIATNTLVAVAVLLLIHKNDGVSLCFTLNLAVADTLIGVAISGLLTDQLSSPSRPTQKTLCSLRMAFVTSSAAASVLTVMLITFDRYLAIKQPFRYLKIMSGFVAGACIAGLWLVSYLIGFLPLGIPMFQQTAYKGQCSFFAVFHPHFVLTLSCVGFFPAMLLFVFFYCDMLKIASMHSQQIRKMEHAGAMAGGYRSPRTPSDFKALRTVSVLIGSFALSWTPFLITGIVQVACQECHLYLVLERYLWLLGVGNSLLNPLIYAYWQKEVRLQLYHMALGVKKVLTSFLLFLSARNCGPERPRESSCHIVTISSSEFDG
The assay is described as follows: Cyclic AMP assay (HTRF) in stable Flp-In-CHO-hGPR119 cell line. In kind it is cell-based. The note with it: Flp-In-CHO-hGPR119 cells, intracellular cAMP, 30 minutes at 37° C., 1 mM IBMX, read-out: CHO-GPR119-HTRF (3158) EC50. The method, then: Flp-In-CHO cells (Invitrogen, Cat. # R758-07) are maintained in Ham's F12 medium supplemented with 10% fetal bovine serum, 1% antibiotic mixture and 2 mM L-glutamine. The cells are transfected with a DNA mixture containing human GPR119 in pcDNA5/FRT vector and the pOG44 vector (1:9) using Fugene6 (Roche), according to the manufacturer's instruction. After 48 hours, the medium is changed to medium supplemented with 400 μg/ml hygromycin B to initiate the selection of stably transfected cells.
To test the activity of compounds of the invention, Flp-In-CHO-hGPR119 cells are harvested and resuspended in DMEM plus 3% lipid-depleted fetal bovine serum. Forth μl of cells are plated in 384 well plates at a density of 15,000 cells/well. IBMX (3-isobutyl-1-methyl-xanthine) is added to the cells to a final concentration of 1 mM, followed by the addition of 500 nl of the compound to be tested. The cells are incubated at 37° C. for 30 minutes. Equal volume (20 μl) of the HTRF reagents, anti-cAMP-Cryptate and cAMP-XL665, are added to the cells. The plates are incubated at room temperature for 1 hour and read on a HTRF reader according to the manufacturer's instruction.
Compounds of Formula I, in free form or in pharmaceutically acceptable salt form, produced a concentration-dependent increase in intracellular cAMP level. […] Specific EC50 data is presented for some of the compounds of the invention in the table, infra.
What is called EC50 is the concentration at which the effect is half-maximal. Take `CC(C)OC(=O)OCc1cccc(O[C@H]2CCN(c3ccc(S(C)(=O)=O)cc3F)C2)c1` [Example 18, (S)-3-(1-(2-fluoro-4-(methylsulfonyl)phenyl)pyrrolidin-3-yloxy)benzyl isopropyl carbonate]: the 50% effective concentration (EC50) amounted to 0.794 µM.

For the molecule `CN(Cc1ccccc1)Cc1cccc(O[C@H]2CCN(c3ccc(S(C)(=O)=O)cc3F)C2)c1` [Example 10], the EC50 was 0.259 µM.

As to `CCCN(Cc1ccccc1)Cc1cccc(O[C@H]2CCN(c3ccc(S(C)(=O)=O)cc3F)C2)c1` [Example 13], the EC50 was 0.73 µM.

With `CC(C)OC(=O)N1CCc2cc(O[C@H]3CCN(c4ccc(S(C)(=O)=O)cc4)C3)ccc2C1` [Example 1, (S)-isopropyl 6-(1-(4-(methylsulfonyl)phenyl)pyrrolidin-3-yloxy)-3,4-dihydroisoquinoline-2(1H)-carboxylate], the EC50 was 0.085 µM.

As for `CCN(Cc1ccccc1)Cc1cccc(O[C@H]2CCN(c3ccc(S(C)(=O)=O)cc3)C2)c1` [Example 7], the EC50 turned out to be 0.423 µM.

Consider `CNCc1cccc(O[C@H]2CCN(c3ccc(S(C)(=O)=O)cc3)C2)c1` [Example 6, (S)—N-methyl-1-(3-(1-(4-(methylsulfonyl)phenyl)pyrrolidin-3-yloxy)phenyl)methanamine], for which the EC50 was 0.319 µM.

Consider `CC(C)OC(=O)N1CCc2cc(O[C@H]3CCN(c4ccc(S(C)(=O)=O)cc4F)C3)ccc2C1` [Example 2, (S)-isopropyl 6-(1-(2-fluoro-4-(methylsulfonyl)phenyl)pyrrolidin-3-yloxy)-3,4-dihydroisoquinoline-2(1H)-carboxylate], for which the EC50 came out at 0.042 µM.

As for `CCCN(Cc1cccc(O[C@H]2CCN(c3ccc(S(C)(=O)=O)cc3)C2)c1)C(=O)OC(C)C` [Example 15], the EC50 came out at 0.397 µM.

`CC(C)OC(=O)N(Cc1cccc(O[C@H]2CCN(c3ccc(S(C)(=O)=O)cc3)C2)c1)C(C)C` [Example 16]: the EC50 was 0.199 µM.

In the case of `CC(C)OC(=O)N1CCc2cc(CO[C@H]3CCN(c4ccc(S(C)(=O)=O)cc4)C3)ccc2C1` [Example 3, (S)-isopropyl 6-((1-(4-(methylsulfonyl)phenyl)pyrrolidin-3-yloxy)methyl)-3,4-dihydroisoquinoline-2(1H)-carboxylate], the EC50 came to 0.202 µM.

Regarding `CCN(Cc1cccc(O[C@H]2CCN(c3ccc(S(C)(=O)=O)cc3)C2)c1)C(=O)OC(C)C` [Example 14, (S)-Isopropyl ethyl(3-(1-(4-(methylsulfonyl)phenyl)pyrrolidin-3-yloxy)benzyl)carbamate], the 50% effective concentration (EC50) is 0.082 µM.

Consider `CC(C)OC(=O)OCCc1cccc(O[C@@H]2CCN(c3ccc(S(C)(=O)=O)cc3F)C2)c1` [Example 20], for which the EC50 turned out to be 0.515 µM.

Regarding `CC(C)N(Cc1ccccc1)Cc1cccc(O[C@H]2CCN(c3ccc(S(C)(=O)=O)cc3F)C2)c1` [Example 12], the EC50 is 0.033 µM.

Consider `CS(=O)(=O)c1ccc(N2CC[C@H](Oc3cccc(CNCc4ccccc4)c3)C2)c(F)c1` [Example 9], for which the EC50 was determined as 2.62 µM.

`CC(C)OC(=O)N(C)Cc1cccc(O[C@H]2CCN(c3ccc(S(C)(=O)=O)cc3)C2)c1` [Example 17]: the EC50 turned out to be 0.263 µM.

Turning to `CC(C)OC(=O)OCc1ccc(O[C@@H]2CCN(c3ccc(S(C)(=O)=O)cc3F)C2)cc1` [Example 19], the EC50 is 1.02 µM.

As to `CNCc1ccc(O[C@H]2CCN(c3ccc(S(C)(=O)=O)cc3)C2)cc1` [Example 5, (S)—N-methyl-1-(4-(1-(4-(methylsulfonyl)phenyl)pyrrolidin-3-yloxy)phenyl)methanamine], the EC50 was 0.353 µM.

For `CCN(Cc1ccccc1)Cc1cccc(O[C@H]2CCN(c3ccc(S(C)(=O)=O)cc3F)C2)c1` [Example 11], the EC50 is 0.356 µM.

Consider `CC(C)OC(=O)N1CCc2ccc(CO[C@H]3CCN(c4ccc(S(C)(=O)=O)cc4)C3)cc2C1` [Example 4, (S)-isopropyl 7-((1-(4-(methylsulfonyl)phenyl)pyrrolidin-3-yloxy)methyl)-3,4-dihydroisoquinoline-2(1H)-carboxylate], for which the EC50 was determined as 0.424 µM.

As to `CC(C)N(Cc1ccccc1)Cc1cccc(O[C@H]2CCN(c3ccc(S(C)(=O)=O)cc3)C2)c1` [Example 8], the EC50 came out at 0.586 µM.
